These results are taken from patent US8278352B2, “Pesticide compositions and methods” (Commonwealth Scientific & Industrial Research Organisation, priority 2004, dated 2012).

Entries after “also recorded” stand apart in the source; their conditions may differ. Structures can show the parent of a compound that is named as a salt.

Series [1] in a line: Stability of ethyl formate and methyl isothiocyanate formulation stored at 25° C. Type of series: physicochemical. The following applies: for stability when formulated and stored: 25° C., 2 months; for percent of the original fumigant present (M/Mo): formulation stored at 25° C. As for the experimental part: The stability of ethyl formate and methyl isothiocyanate as a fumigant formulation stored at 25° C. was assessed for a period of 1 day, 1 month and 2 months. […] This is also graphically represented in FIG. 1.

The test system of series [2] is adults of Sitophilus oryzae. Nature of the series: Toxicity study on adults of Sitophilus oryzae (fumigation, mortality). In kind it is in vivo. As to conditions: 25° C., 24 hours fumigation. As for the experimental part:
The insect species studied were laboratory strains of the rice weevil Sitophilus oryzae present as the egg, larvae, pupae or adult and mixed aged cultures thereof in bulk stores of wheat.
Toxicity studies of ethyl formate alone compared with ethyl formate and […] were conducted on adults of the rice weevil Sitophilus oryzae at 25° C. and 24 hours fumigation.

Series [3] relates to mixed aged cultures (egg, larvae and pupae) of S. oryzae. The experiment in a line: Emerging adult study on mixed aged cultures of S. oryzae. Type of series: in vivo. As to conditions: Sitophilus oryzae, 25° C., 6 hours fumigation, read-out: emerging adult population, % of control. As for the experimental part: Table 3 compares the toxicity of ethyl formate alone and ethyl formate+methyl isothiocyanate to mixed aged cultures (egg, larvae and pupae) of S. oryzae at 25° C. after 6 hours fumigation at two concentrations.

Series [4] deals with pupae of S. oryzae. The experiment in a line: Emerging adult study on pupae of S. oryzae. Type of series: in vivo, Sitophilus oryzae. The following applies: 25° C. As for the experimental part: Table 4 compares the toxicity of ethyl formate alone and ethyl formate+methyl isothiocyanate to pupae of S. oryzae at 25° C. after 6 hours fumigation at two concentrations.
Table 5 compares the toxicity of ethyl formate alone and ethyl formate+methyl isothiocyanate to pupae of S. oryzae at 25° C. after 24 hours fumigation at two concentrations.

A short description of series [5]: 4 tonne outloading trial: fumigant concentration next day. The following applies: 160 g/t, tray of wheat, overnight, 20° C. As for the experimental part: During outloading, wheat was treated/fumigated with a 95:5 (w:w) ratio of ethyl formate+methyl isothiocyanate at a rate of 160 g/t. The treated wheat was then transferred by auger into a 4 tonne truck tray and then covered and held overnight (see FIG. 10).

With `CCOC=O` [EtF, ethyl formate], the “stability when formulated and stored” value in series [1] is given as “stable”. Also, the “percent of the original fumigant present (M/Mo)” value is reported as 100% in series [1] (1 Day), 102% in series [1] (1 Month) and 98.5% in series [1] (2 Months). In addition, the mortality result in series [2] (5.9 mg/L) was “inactive; also recorded: unaffected”. Moreover, in series [2] (Sitophilus oryzae, 5.9 mg/L), the mortality at 5.9 µg/mL came out at 0%. For the same molecule, the mortality at 11.8 µg/mL in series [2] (Sitophilus oryzae, 11.8 mg/L) came out at 48%. Also, in series [3] (67.4 mg/L), the activity at 67.4 µg/mL amounted to 27%. For the same molecule, the activity at 101.1 µg/mL in series [3] (101.1 mg/L) amounted to 5%. Moreover, the emerging adult % in series [4] (34.8 mg/L, 24 hours fumigation) is given as 19%; in series [4] (67.4 mg/L, 6 hours fumigation), 24%; in series [4] (67.4 mg/L, 24 hours fumigation), 9%; in series [4] (101.1 mg/L, 6 hours fumigation), 12%. In series [5], the “concentration of fumigant component on the next day” value is “below TLV”.
For the molecule `CN=C=S` [MITC, methyl isothiocyanate], the “stability when formulated and stored” value in series [1] is recorded as “stable”. Also, the results for the “percent of the original fumigant present (M/Mo)” value in series [1] (1 Day), in series [1] (1 Month) and in series [1] (2 Months) were 100%, 98% and 101.5%, respectively. In addition, the “concentration of fumigant component on the next day” value in series [5] is “below TLV”.
